Experimental data as given in patent US20050238655A1, “Antiviral activity from medicinal mushrooms” (priority 2004, published 2005).

Tests used:
Cowpox = format: cell-based
Vaccinia = format: cell-based

## Nc1ccn(C[C@@H](CO)OCP(=O)(O)O)c(=O)n1 [CDV]
Cowpox
  PR CDV EC90: 18.1 µg/mL
Vaccinia
  PR CDV EC90: 17 µg/mL
